Common to all, as to experiment: Measurement of antimycotic activity (minimum inhibitory concentration, MIC) against dermatophyte
Holding throughout (type): cell-based

One experiment relates to M. canis TIMM0760. As to conditions: Microsporum canis, 168 h, Sabouraud's agar pH=5.9, 27° C., 1 week. As to the method:
(§1) The antimycotic activity of the compounds of the invention against dermatophyte was examined.
(§2) More particularly, the test dermatophyte strains shown in Tables 9 and 10 below were cultivated in advance on a slant culture of Sabouraud's agar medium (manufactured by Nissui Seiyaku Co., Ltd.; 1.0% peptone, 4.0% glucose, 1.5% agar, pH=5.9) at 27° C. for 2 weeks to allow them to grow conidia sufficiently. Then, sterilized physiological saline containing 0.05 weight/volume % of Tween 80 was added to the culture and while rubbing the surface of the culture with a platinum loop, the conidia were separated and caused to float. Using a hemocytometer, the filtrate was adjusted with sterilized physiological saline such that the concentration of conidia was 10^6 cells/ml, which was used as a test microbe liquid.
(§3) On the other hand, PR compounds and AD compounds (test drugs) of the present invention obtained in the examples described above were taken each in an amount of 10 mg, and 1 ml of dimethyl sulfoxide was added thereto to form a stock solution, of which 500 μl was taken and 500 μl of dimethyl sulfoxide was added thereto to prepare a 2-fold dilution. The same operation was repeated to prepare 13-stages ranging from 10 to 0.0025 mg/ml (final concentration of test system 100 to 0.025 μg/ml) of diluted drug solutions. Solutions with various diluted concentrations of test drug were each dispensed in sterilized petri dish with an amount of 100 μl. Then, 10 ml of sterile-dissolved Sabouraud's agar medium (1.0% peptone, 4.0% glucose, 1.5% agar, pH=5.9) was added, well mixed and solidified. Then, 5 μl of the test microbe solution previously adjusted were added using a microplanter, respectively.
(§4) The results are shown in Table 9 for PR compounds and in Table 10 for AD compounds, respectively. In the column of Compound No. in Tables 9 and 10, "PR-" or "AD-" were omitted.

The next experiment deals with M. gypseum IF08231. The conditions noted are these: Nannizzia gypsea, 168 h, Sabouraud's agar pH=5.9, 27° C., 1 week. As to the method:
as §1, §2, §3, §4

In experiment [1] the test system is T. mentagrophytes IF05811. As to conditions: Trichophyton mentagrophytes, 168 h, Sabouraud's agar pH=5.9, 27° C., 1 week. As to the method: as §1, §2, §3, §4
The test system of experiment [2] is T. mentagrophytes IF07552. The conditions noted are these: Trichophyton mentagrophytes, 168 h, Sabouraud's agar pH=5.9, 27° C., 1 week. As for the experimental part: as §1, §2, §3, §4
In experiment [3] the test system is T. mentagrophytes TIMM1177. As to conditions: Trichophyton mentagrophytes, 168 h, Sabouraud's agar pH=5.9, 27° C., 1 week. As to the method:
as §1, §2, §3, §4

For experiment [4], the system named is T. mentagrophytes TIMM1189. As to conditions: Trichophyton mentagrophytes, 168 h, Sabouraud's agar pH=5.9, 27° C., 1 week. As to the method:
as §1, §2, §3, §4

The test system of the next experiment is T. rubrum IF05808. As to conditions: Trichophyton rubrum, 168 h, Sabouraud's agar pH=5.9, 27° C., 1 week. As to the method: as §1, §2, §3, §4
For the next experiment, the system named is T. rubrum IF09185. The conditions noted are these: Trichophyton rubrum, 168 h, Sabouraud's agar pH=5.9, 27° C., 1 week. As to the method:
as §1, §2, §3, §4

For a further experiment, the system named is T. violaceum TIMM1264. The conditions noted are these: Trichophyton violaceum, 168 h, Sabouraud's agar pH=5.9, 27° C., 1 week. As for the experimental part: as §1, §2, §3, §4

The values that follow come from US6329399A, “Antifungal amine derivatives and processing for producing the same” (Pola Chemical Industries, Inc., priority 1997, dated 2001).

Converted amounts (≈) assume the structure as drawn.

`CN(C/C=C/C#CC(C)(C)C)CC(=O)c1ccccc1O` [Compound PR-1620, Trans-2-[N-(6,6-dimethyl-2-hepten-4-ynyl)-N-methylamino]-2'-hydroxyacetophenone]: the MIC came out at 12.5 µg/mL (≈ 43.8 µM) in the experiment with M. canis TIMM0760; 25 µg/mL (≈ 87.6 µM) against M. gypseum IF08231; 12.5 µg/mL (≈ 43.8 µM) in experiment [1]; 6.25 µg/mL (≈ 21.9 µM) in [2]; 12.5 µg/mL (≈ 43.8 µM) in [3]; 12.5 µg/mL (≈ 43.8 µM) in [4]. The MIC against T. rubrum IF05808 was 6.25 µg/mL (≈ 21.9 µM); in the experiment with T. rubrum IF09185, 12.5 µg/mL (≈ 43.8 µM); against T. violaceum TIMM1264, 12.5 µg/mL (≈ 43.8 µM).

On to `C=C(CN(C)C/C=C/C#CC(C)(C)C)c1cccc(Br)c1` [Compound PR-1484, Trans-N-(6,6-dimethyl-2-hepten-4-ynyl)-N-methyl-[2-(3-bromophenyl)-2-propenyl]amine], for which the MIC with M. canis TIMM0760 came out at 0.1 µg/mL (≈ 0.289 µM); in the experiment with M. gypseum IF08231, 0.39 µg/mL (≈ 1.13 µM); in experiment [1], 0.1 µg/mL (≈ 0.289 µM); in experiment [2] it was 0.2 µg/mL (≈ 0.578 µM); in experiment [3], 0.1 µg/mL (≈ 0.289 µM); in experiment [4], 0.39 µg/mL (≈ 1.13 µM). Further, the minimal inhibitory concentration (MIC) with T. rubrum IF05808, with T. rubrum IF09185 and against T. violaceum TIMM1264 was 0.1 µg/mL (≈ 0.289 µM) each time.

For `C=C(CN(C)C/C=C/C#CC(C)(C)C)c1ccc(F)cc1` [Compound PR-1430, trans-N-(6,6-dimethyl-2-hepten-4-ynyl)-N-methyl-[2-(4-fluorophenyl)-2-propenyl]amine], the MIC stood at 0.39 µg/mL (≈ 1.37 µM) in the experiment with M. canis TIMM0760; 6.25 µg/mL (≈ 21.9 µM) against M. gypseum IF08231; 0.39 µg/mL (≈ 1.37 µM) in [1]; 0.39 µg/mL (≈ 1.37 µM) in experiment [2]; 0.39 µg/mL (≈ 1.37 µM) in experiment [3]; 0.39 µg/mL (≈ 1.37 µM) in [4]. Besides, the MIC in the experiment with T. rubrum IF05808, with T. rubrum IF09185 and against T. violaceum TIMM1264 was 0.39 µg/mL (≈ 1.37 µM) in each case.

On to `C=C(CN(C)C/C=C/C#CC(C)(C)C)c1ccccc1F` [Compound PR-1491, Trans-N-(6,6-dimethyl-2-hepten-4-ynyl)-N-methyl-[2-(2-fluorophenyl)-2-propenyl]amine], for which the MIC is 0.1 µg/mL (≈ 0.35 µM) in the experiment with M. canis TIMM0760; 6.25 µg/mL (≈ 21.9 µM) with M. gypseum IF08231; 0.39 µg/mL (≈ 1.37 µM) in [1]; 0.39 µg/mL (≈ 1.37 µM) in [2]; 0.39 µg/mL (≈ 1.37 µM) in experiment [3]; 0.39 µg/mL (≈ 1.37 µM) in [4]. Besides, the minimal inhibitory concentration (MIC) is 0.1 µg/mL (≈ 0.35 µM) in the experiment with T. rubrum IF05808, 0.39 µg/mL (≈ 1.37 µM) against T. rubrum IF09185 and 0.39 µg/mL (≈ 1.37 µM) against T. violaceum TIMM1264.

Turning to `C=C(CN(C)C/C=C/C#CC(C)(C)C)c1ccccc1C` [Compound PR-1533, trans-N-(6,6-dimethyl-2-hepten-4-ynyl)-N-methyl-[2-(o-tolyl)-2-propenyl]amine], the MIC came to 0.39 µg/mL (≈ 1.39 µM) against M. canis TIMM0760; 6.25 µg/mL (≈ 22.2 µM) in the experiment with M. gypseum IF08231; 0.39 µg/mL (≈ 1.39 µM) in experiment [1]; 1.56 µg/mL (≈ 5.54 µM) in experiment [2]; 0.39 µg/mL (≈ 1.39 µM) in experiment [3]; 0.39 µg/mL (≈ 1.39 µM) in experiment [4]. For the same compound, the MIC in the experiment with T. rubrum IF05808, in the experiment on T. rubrum IF09185 and against T. violaceum TIMM1264 was 0.39 µg/mL (≈ 1.39 µM) throughout.

For the compound `C=C(CN(C)Cc1ccc(C(C)(C)C)cc1)c1ccc(C)cc1C` [Compound AD-046, N-(4-tert-butylbenzyl)-N-methyl-[2-(2,4-dimethylphenyl)-2-propenyl]amine], the MIC was 6.25 µg/mL (≈ 19.4 µM) against M. canis TIMM0760; 12.5 µg/mL (≈ 38.9 µM) against M. gypseum IF08231; 6.25 µg/mL (≈ 19.4 µM) in [1]; 6.25 µg/mL (≈ 19.4 µM) in experiment [2]; 12.5 µg/mL (≈ 38.9 µM) in [3]; 12.5 µg/mL (≈ 38.9 µM) in experiment [4]. Further, the MIC was found to be 1.56 µg/mL (≈ 4.85 µM) in the experiment on T. rubrum IF05808, 3.12 µg/mL (≈ 9.7 µM) in the experiment with T. rubrum IF09185 and 12.5 µg/mL (≈ 38.9 µM) against T. violaceum TIMM1264.
